Results reported in US6380243B1, “Aminopyridine-containing thiourea inhibitors of herpes viruses” (American Home Products Corporation, priority 1998, dated 2002).
Converted amounts (≈) assume the structure as drawn.

Key:
HCMV wild-type = assay: HCMV yield assay; type: cell-based, human cytomegalovirus; details: human foreskin fibroblasts, reduction of virus yield by 50%; for IC50: Human betaherpesvirus 5, Fibroblast, read-out: IC50 (ug/ml) HCMV
Experimental: Yield assay. Monolayer cultures of human foreskin fibroblasts are infected with HCMV wild-type, typically at a multiplicity of infection equal to 0.2, in the presence of inhibitor compound (varying concentrations). At three days post-infection, total virus produced in these cultures (i.e. virus yield) is assessed by harvesting and titering the virus in 12-well plates of cultured human foreskin fibroblasts (done in the absence of inhibitor). Plaques are quantified at 2 weeks post-infection. An inhibitor of HCMV is identified by the reduction in titer of virus yield in the presence, compared to the titer in the absence of compound. In this assay, the relative anti-HCMV activity of an inhibitor is typically determined by calculating the IC50 or IC90 value, that is, the amount of compound required to reduce the virus yield by 50% or 90%, respectively. Table I describes IC50 data for compounds tested against HCMV.

HSV-1 = assay: HSV Antiviral (ELISA) Assay; type: cell-based, herpes simplex virus type 1; details: HSV-1, about 24 hours post-infection; for IC50: Human alphaherpesvirus 1, Vero cells, read-out: IC50 (ug/ml) HSV
Experimental: Vero cells (ATCC #CCL-81) are plated on 96-well tissue culture plates at 3.5×10^4 cells per 100 μl tissue culture DMEM (Dulbecco's modified Eagle media) supplemented with 2% fetal bovine serum (FBS) in each well. After overnight incubation @37° C. (in 5% CO2) and 30 minutes prior to infection with HSV-1 (multiplicity of infection equal to 0.006), cells are either untreated, or treated with test compound (multiple concentrations) or reference standard drug control. After approximately 24 hours post-infection incubation @37° C. (in 5% CO2), cells are fixed for ELISA assay. The primary antibody is murine anti-HSV glycoprotein D monoclonal primary antibody and the secondary antibody is goat anti-mouse IgG linked to β-galactosidase. Thus the extent of viral replication is determined by assessing β-galactosidase activity by quantifying the generation of the 4-methyl umbelliferone fluorescent cleavage product after addition of the methyl umbelliferyl-β-D-galactoside (Sigma #M1633) substrate on a microfluorimeter (365 nm for excitation and 450 nm for emission). Antiviral activity (IC50) of the test compound is determined by comparing the flourescence obtained in absence of compound to that obtained in the presence of compound.

VZV strain Ellen = assay: VZV Antiviral (ELISA) Assay; type: cell-based, varicella-zoster virus; details: for IC50 / inhibition at 10 µg/mL: Human alphaherpesvirus 3, 72 h; for IC50: read-out: IC50 (ug/ml) VZV; for inhibition at 10 µg/mL: read-out: % inhibition 10 ug/ml VZV, 10 ug/ml, human foreskin fibroblast cells, three days
Experimental: For the generation of stock VZV to be used in the assay, VZV strain Ellen (ATCC #VR-1367) is used to infect human foreskin fibroblast (HFF) cells at low multiplicity (less than 0.1) and incubated overnight at 37° C. in 5% CO2. After the overnight incubation, the mixture of uninfected and VZV-infected HFF infected cells are then harvested and added to each well of 96-well plates (3.5×10^4 cells in 100 1μl DMEM supplemented with 2% FBS) which contain test compound or the reference standard drug control (in 100 μl DMEM supplemented with 2% FBS per well). These cells are incubated for three days at 37° C. in 5% CO2, then fixed for ELISA assay. The primary antibody is murine anti-VZV glycoprotein II monoclonal antibody (Applied Biosystems, Inc. #13-145-100) and the secondary antibody is goat anti-mouse IgG linked to β-galactosidase. Thus the extent of viral replication is determined by assessing β-galactosidase activity by quantifying the generation of the 4-methyl umbelliferone fluorescent cleavage product after addition of the methyl umbelliferyl-β-D-galactoside (Sigma #M1633) substrate on a microfluorimeter (365 nm for excitation 450 nm for emission). Antiviral activity (IC50) of the test compound is determined by comparing the flourescence obtained in absence of compound to that obtained the presence of compound.

[1] = human foreskin fibroblast cells, three days

Compound	IC50 (HCMV wild-type) [µg/mL]	IC50 (HSV-1) [µg/mL]	IC50 (VZV strain Ellen; [1]) [µg/mL]	inhibition at 10 µg/mL (VZV strain Ellen) [%]	IC50 (ug/ml) HCMV (HCMV wild-type) [µg/mL]	IC50 (ug/ml) HSV (HSV-1; Vero cells) [µg/mL]	% inhibition 10 ug/ml VZV (VZV strain Ellen; 10 ug/ml, human foreskin fibroblast cells, three days) [%]	IC50 (ug/ml) VZV (VZV strain Ellen; [1]) [µg/mL]
CC(NC(=S)Nc1ccc(NC(=O)c2ccccc2F)cc1)c1ccc2ccccc2n1 (centres unmarked) [Example 1095, 2-Fluoro-N-{4-[3-(1-quinolin-2-yl-ethyl)-thioureido]-phenyl}-benzamide]	2.4 (≈ 5.4 µM)	> 10	7.1 (≈ 16 µM)					
CC(NC(=S)Nc1ccc(NC(=O)c2ccccc2F)cc1)c1cnc2ccccc2c1 (centres unmarked) [Example 1100, 2-Fluoro-N-{4-[3-(1-quinolin-3-yl-ethyl)-thioureido]-phenyl}-benzamide]	4.6 (≈ 10.3 µM)	> 10	7.3 (≈ 16.4 µM)					
O=C(Nc1ccc(NC(=S)NCc2ccncc2)cc1)c1ccccc1F [Example 658, 2-Fluoro-N-[4-(3-pyridin-4-ylmethyl-thioureido)-phenyl]-benzamide]	> 0.5	10 (≈ 26.3 µM)						
O=C(Nc1ccc(NC(=S)Nc2cccnc2)cc1)c1ccccc1F [Example 428, 2-Fluoro-N-[4-(3-pyridin-3-yl-thioureido)-phenyl]-benzamide]	> 10	> 10	> 10	0				
O=C(Nc1ccc(NC(=S)NCc2ccncc2)cc1)c1ccco1 [Example 659, Furan-2-carboxylic acid [4-(3-pyridin-4-ylmethyl-thioureido)-phenyl]-amide]	> 0.5	> 10						
O=C(Nc1ccc(NC(=S)Nc2cncc(Br)c2)cc1)c1csnn1 [Example 525, [1,2,3]Thiadiazole-4-carboxylic acid {4-[3-(5-bromo-pyridin-3-yl)-thioureido]-phenyl}-amide]	0.018 (≈ 0.0413 µM)	2.5 (≈ 5.74 µM)	> 10	39				
O=C(Nc1ccc(NC(=S)Nc2cccnc2)cc1)c1ccco1 [Example 429, Furan-2-carboxylic acid [4-(3-pyridin-3-yl-thioureido)-phenyl]-amide]	1 (≈ 2.96 µM)	> 10	> 10	0				
O=C(Nc1ccc(NC(=S)NCc2cccnc2)cc1)c1csnn1 [Example 634, [1,2,3]Thiadiazole-4-carboxylic acid [4-(3-pyridin-3-ylmethyl-thioureido)-phenyl]-amide]	0.12 (≈ 0.324 µM)	> 10	> 10					
CC(NC(=S)Nc1ccc(NC(=O)c2ccccc2F)cc1)c1ccco1 (centres unmarked) [Example 802, 2-Fluoro-N-{4-[3-(1-furan-2-yl-ethyl)-thioureido]-phenyl}-benzamide]	> 10	> 10	7.3 (≈ 19 µM)					
CC(NC(=S)Nc1ccc(NC(=O)c2ccccc2F)cc1)c1ccncc1 (centres unmarked) [Example 803, 2-Fluoro-N-{4-[3-(1-pyridin-4-yl-ethyl)-thioureido]-phenyl}-benzamide]	> 10	> 10	> 7.5					
O=C(Nc1ccc(NC(=S)NC2CCc3ccccc32)cc1)c1csnn1 (centres unmarked) [Example 649, [1,2,3]Thiadiazole-4-carboxylic acid [4-(3-indan-1-yl-thioureido)-phenyl]-amide]	0.02 (≈ 0.0506 µM)	> 10	0.5 (≈ 1.26 µM)					
O=C(Nc1ccc(NC(=S)Nc2ccc3[nH]ncc3c2)cc1)c1ccccc1F [Example 483, 2-Fluoro-N-{4-[3-(1H-indazol-5-yl)-thioureido]-phenyl}-benzamide]	5 (≈ 12.3 µM)	1.2 (≈ 2.96 µM)	> 10	45				
CC(C)(C)n1ccnc1NC(=S)Nc1ccc(NC(=O)c2csnn2)cc1 [Example 608, [1,2,3]Thiadiazole-4-carboxylic acid {4-[3-(1-tert-butyl-1H-imidazol-2-yl)-thioureido]-phenyl}-amide]	> 0.5	9 (≈ 22.4 µM)	> 10					
O=C(Nc1ccc(NC(=S)Nc2ccccn2)cc1)c1ccco1 [Example 426, Furan-2-carboxylic acid [4-(3-pyridin-2-yl-thioureido)-phenyl]-amide]	1.6 (≈ 4.73 µM)	> 10	1.8 (≈ 5.32 µM)	2				
CC(NC(=S)Nc1ccc(NC(=O)c2ccccc2F)cc1)c1nccc2ccccc12 (centres unmarked) [Example 1098, 2-Fluoro-N-{4-[3-(1-isoquinolin-1-yl-ethyl)-thioureido]-phenyl}-benzamide]	3.5 (≈ 7.87 µM)	9 (≈ 20.2 µM)	3.8 (≈ 8.55 µM)					
[1,2,3]Thiadiazole-4-carboxylic acid {4-[3-(5-chloro-pyridin-3-yl)-thioureido]-phenyl}-amide [Example 520]					0.32	12	38	>10
CC(NC(=S)Nc1ccc(NC(=O)c2ccccc2F)cc1)c1cc2ccccc2cn1 (centres unmarked) [Example 1097, 2-Fluoro-N-{4-[3-(1-isoquinolin-3-yl-ethyl)-thioureido]-phenyl}-benzamide]	4 (≈ 9 µM)	> 10	5.5 (≈ 12.4 µM)					
CC(C)(C)n1ccnc1NC(=S)Nc1ccc(NC(=O)c2ccco2)cc1 [Example 609, Furan-2-carboxylic acid {4-[3-(1-tert-butyl-1H-imidazol-2-yl)-thioureido]-phenyl}-amide]	1.5 (≈ 3.91 µM)	8 (≈ 20.9 µM)	> 10					
CC(NC(=S)Nc1ccc(NC(=O)c2ccccc2F)cc1)c1cccn1C (centres unmarked) [Example 804, 2-Fluoro-N-(4-{3-[1-(1-methyl-1H-pyrrol-2-yl)-ethyl]-thioureido}-phenyl)-benzamide]	> 10	> 10	5.7 (≈ 14.4 µM)					
O=C(Nc1ccc(NC(=S)Nc2ccccn2)cc1)c1ccccc1F [Example 443, 2-Fluoro-N-[4-(3-pyridin-2-yl-thioureido)-phenyl]-benzamide]	> 10	> 10	> 10	0				
O=C(Nc1ccc(NC(=S)NCc2cccnc2)cc1)c1ccco1 [Example 633, Furan-2-carboxylic acid [4-(3-pyridin-3-ylmethyl-thioureido)-phenyl]-amide]	0.34 (≈ 0.965 µM)	> 10	> 10					
CC(NC(=S)Nc1ccc(NC(=O)c2ccccc2F)cc1)c1ccsc1 (centres unmarked) [Example 805, 2-Fluoro-N-{4-[3-(1-thiophen-3-yl-ethyl)-thioureido]-phenyl}-benzamide]	8 (≈ 20 µM)	> 10	1.6 (≈ 4 µM)					
O=C(Nc1ccc(NC(=S)Nc2ccncc2)cc1)c1ccccc1F [Example 444, 2-Fluoro-N-[4-(3-pyridin-4-yl-thioureido)-phenyl]-benzamide]	4 (≈ 10.9 µM)	8 (≈ 21.8 µM)	> 10	0				
O=C(Nc1ccc(NC(=S)Nc2cncc(C(F)(F)F)c2)cc1)c1csnn1 [Example 629, [1,2,3]Thiadiazole-4-carboxylic acid {4-[3-(5-trifluoromethyl-pyridin-3-yl)-thioureido]-phenyl}-amide]	0.5 (≈ 1.18 µM)	> 10	> 10					
O=C(Nc1ccc(NC(=S)NCc2cccnc2)cc1)c1ccccc1F [Example 632, 2-Fluoro-N-[4-(3-pyridin-3-ylmethyl-thioureido)-phenyl]-benzamide]	> 10	> 10	> 10					
O=C(Nc1ccc(NC(=S)NCc2ccncc2)cc1)c1csnn1 [Example 660, [1,2,3]Thiadiazole-4-carboxylic acid [4-(3-pyridin-4-ylmethyl-thioureido)-phenyl]-amide]	> 0.5	10 (≈ 27 µM)						
